We go through 22 compounds from patent US20210393565A1, “PREPARATION FOR USE TO INCREASE THE FORMATION OF ONE OR MORE SPECIALIZED PRO-RESOLVING LIPID MEDIATORS (SPM)” (Evonik Operations GmbH, priority 2018, published 2021).

Format in all cases: cell-based
For assay [1], the system named is Bacillus megaterium DSM 32963 cells. The assay can be described thus: Lipidometabolomics (UPLC-MS/MS) of culture supernatants with AvailOm, dissolved or as dispersion. Particulars: for Extracellular concentration of PUFA oxygenation product: − bile acids, net after subtraction of cell-free control. The text has this:
(§1) Bacterial supernatant samples were subjected to lipid extraction using RP-phase solid phase extraction and subsequently analyzed by ultra performance liquid chromatography ESI tandem mass spectrometry (UPLC-MS/MS) according to a published procedure. Under these conditions approximately 40 different LM, including 5-hydroxy-eicosapentaenoic acid 5-HEPE, 8-HEPE, 11-HEPE, 12-HEPE, 15-HEPE, 18-HEPE, 5-hydroxy-eicosatetraenoic acid (5-HETE), 8-HETE, 11-HETE, 12-HETE, 15-HETE, 4-hydroxy-DHA (4-HDHA), 7-HDHA, 13-HDHA, 14-HDHA, 17-HDHA, lipoxin A4 (LXA4), LXB4, resolvin E1 (RvE1), RvE3, resolvin D1-5 (RvD1-5), AT-RvD1, RvD2, protectin D1 (PD1), AT-PD1, maresin 1(MaR1), MaR2, plus 4 fatty acid substrates can be detected with a lower limit of detection of 1 pg.
To investigate if Bacillus megaterium is capable of producing other PUFA oxygenation products in addition to 18-HEPE, a lipidometabolomics screening of supernatants from Bacillus megaterium strain 32963 cultured as in example 4 with AvailOm® was performed, either dissolved or in a dispersion formulation, with or without bile acids. Cell-free preparations of AvailOm® formulations were treated and analyzed in parallel and served as controls for non-enzymatic, spontaneous formation of oxygenation products. Values given in table 6 display net concentrations of products formed, i.e. after subtraction of control values. […] Concentrations of several SPM exceed by far the concentrations of SPM found in human plasma samples, which are typically in a range of ˜20-100 pg/ml. For comparison, human breast milk contains ˜6.000 pg/ml RvE1 and ˜10.000 pg/ml RvD1 [42].

Assay [2] has as its system Bacillus megaterium DSM 33296 cells. In words: Lipidometabolomics of culture supernatants with AvailOm dispersion formulation. Particulars: Bacillus megaterium DSM 33296, AvailOm dispersion formulation; net concentration.
Text: as §1
(§2) 47 additional Bacillus megaterium strains sourced from various habitats were screened for their SPM production capacity to determine if this is a general phenomenon of the species Bacillus megaterium and to detect strain-specific differences in types and quantities of SPM being produced. Cells were cultured as detailed in example 4, with dispersion formulation of AvailOm® serving as omega-3 fatty acid source. Cell-free preparations of AvailOm® were treated and analyzed in parallel and served as controls for non-enzymatic, spontaneous formation of oxygenation products. It was observed that all tested strains produced measurable (>1 pg/ml) amounts of various SPM and precursors thereof, that these amounts were hugely different between the strains (up to 2.000 fold), and that concentrations of RvE3 were particularly high (up to 1.3 μg/ml) in most of the strains.
(§3) Values given in table 7 display net concentrations of PUFA oxygenation products formed by two of the top performing strains, Bacillus megaterium DSM 33296 and Bacillus megaterium DSM 33299.

Assay [3] relates to Bacillus megaterium DSM 33299 cells. The assay is described as above. To be noted: Bacillus megaterium DSM 33299, AvailOm dispersion formulation; net concentration.
Text: as §1, §2, §3

Take `CCCCC/C=C\C[C@@H](O)/C=C/C=C/C=C/[C@@H](O)CCCC(=O)O` [t-LTB4]: the “Extracellular concentration of PUFA oxygenation product” value (“Extracellular concentration” for short) in assay [1] (AvailOm dispersion) was found to be 667 pg/mL; in assay [1] (AvailOm), 360 pg/mL; in assay [2], 1780 pg/mL; in assay [3] it was 4181 pg/mL.
As for `CCCCC/C=C\C/C=C\C=C\C(O)C/C=C\CCCC(=O)O` (centres unmarked) [8-HETE, 8-hydroxy-eicosatetraenoic acid], the “abundance with dispersion formulation and/or bile acids compared to AvailOm without both (in words)” value in assay [1] is “lower”. The “Extracellular concentration” value in assay [2] was 24207 pg/mL; in assay [3] it was 15941 pg/mL.
As for `CCCCC[C@H](O)[C@H](O)/C=C/C=C/C=C\C=C\[C@@H](O)CCCC(=O)O` [LXB4, lipoxin B4], in assay [1] (AvailOm dispersion), the “Extracellular concentration” value is 76301 pg/mL.
As for `CC/C=C\C[C@@H](O)/C=C/C=C\C=C\C=C\[C@@H](O)[C@@H](O)C/C=C\CCC(=O)O` [AT-RvD1, Aspirin-triggered RvD1], the “Extracellular concentration” value in assay [1] (AvailOm dispersion) stood at 4932 pg/mL; in assay [1] (AvailOm), 519 pg/mL; in assay [2] it was 9612 pg/mL; in assay [3] it was 48243 pg/mL.
For `CC/C=C\C[C@@H](O)\C=C/C=C/C=C/[C@H](O)C/C=C\C/C=C\CCC(=O)O` [AT-PD1 1, Aspirin-triggered PD1] the same measures were 247 pg/mL, 96 pg/mL, 4558 pg/mL and 10317 pg/mL.
For `CC/C=C\C/C=C\C[C@H](O)[C@H](O)/C=C/C=C/C=C\C/C=C\CCC(=O)O` [MaR2, maresin 2] the same measures were 197 pg/mL, 120 pg/mL, 1522 pg/mL and 1233 pg/mL.
For `CC/C=C\C[C@H](O)/C=C/C=C\C[C@@H](O)/C=C/C=C/C=C\[C@@H](O)CCC(=O)O` [RvD3] the same measures were 8409 pg/mL, 178 pg/mL, 381 pg/mL and 941 pg/mL.
For `CC/C=C\C/C=C\C[C@H](O)\C=C/C=C/C=C/[C@H](O)C/C=C\CCC(=O)O` [MaR1, maresin 1], the “Extracellular concentration” value in assay [1] (AvailOm dispersion) stood at 145 pg/mL; in assay [1] (AvailOm), 114 pg/mL; in assay [2], 1161 pg/mL; in assay [3], 1576 pg/mL.
On to `CC/C=C\C[C@H](O)\C=C/C=C/C=C/[C@H](O)C/C=C\C/C=C\CCC(=O)O` [PD1 1, protectin D1], for which the “Extracellular concentration” value amounted to 3841 pg/mL in assay [1] (AvailOm dispersion), 113 pg/mL in assay [1] (AvailOm), 99029 pg/mL in assay [2] and 75342 pg/mL in assay [3].
As to `CCCCC/C=C\C[C@@H](O)/C=C/C=C/C=C\[C@@H](O)CCCC(=O)O` [LTB4, leukotriene B4], the “Extracellular concentration” value in assay [1] (AvailOm) was 171 pg/mL; in assay [2], 1769 pg/mL; in assay [3], 2206 pg/mL.
For `CC/C=C\C[C@H](O)/C=C\C=C\C/C=C/C=C/C=C/C(O)[C@@H](O)CCC(=O)O` (some centres unmarked) [RvD4] the same measures were 3681 pg/mL, 1986 pg/mL and 2523 pg/mL.
Take `CCC=CCC=CCC=CCC=CC=CC(O)CCCC(=O)O` (centres unmarked) [5-HEPE, 5-hydroxy-eicosapentaenoic acid]: the “abundance with dispersion formulation and/or bile acids compared to AvailOm without both (in words)” value in assay [1] is reported as “lower”. In addition, the “Extracellular concentration” value in assay [1] (AvailOm) was determined as 2253 pg/mL; in assay [2], 395188 pg/mL; in assay [3], 989691 pg/mL.
For `CCC(O)/C=C/C=C\C/C=C\C/C=C\C/C=C\CCCC(=O)O` (centres unmarked) [18-HEPE, 18-hydroxy-eicosapentaenoic acid] the same measures were “lower”, 24463 pg/mL, 391397 pg/mL and 217725 pg/mL.
As to `CC/C=C\C/C=C\C/C=C\C/C=C\C=C\C(O)C/C=C\CCC(=O)O` (centres unmarked) [7-HDHA, 7-hydroxy-DHA], the “Extracellular concentration” value in assay [2] worked out at 202129 pg/mL; in assay [3] it was 243080 pg/mL.
For RvD1, the “Extracellular concentration” value turned out to be 1863 pg/mL in assay [1] (AvailOm dispersion), 598 pg/mL in assay [1] (AvailOm), 3626 pg/mL in assay [2] and 4389 pg/mL in assay [3].
As to `CC/C=C\C[C@H](O)[C@@H](O)/C=C/C=C/C=C\C=C\[C@@H](O)CCCC(=O)O` [LXB5, lipoxin B5], the “Extracellular concentration” value in assay [1] (AvailOm dispersion) amounted to 669042 pg/mL; in assay [1] (AvailOm), 2376 pg/mL.
As to `CCCCC[C@H](O)/C=C/C=C\C=C\C=C\[C@@H](O)[C@@H](O)CCCC(=O)O` [LXA4, lipoxin A4], the “Extracellular concentration” value in assay [2] was determined as 1157 pg/mL; in assay [3] it was 1430 pg/mL.
As to `CC/C=C\C[C@H](O)[C@H](O)/C=C/C=C/C=C\C=C\[C@@H](O)C/C=C\CCC(=O)O` [RvD2], the “Extracellular concentration” value was 99 pg/mL in assay [1] (AvailOm dispersion), 87 pg/mL in assay [1] (AvailOm), 265 pg/mL in assay [2] and 428 pg/mL in assay [3].
For `CC/C=C\C[C@H](O)/C=C/C=C\C/C=C\C=C\[C@@H](O)C/C=C\CCC(=O)O` [RvD5] the same measures were 9016 pg/mL, 68 pg/mL, 15079 pg/mL and 34168 pg/mL.
For `CC[C@@H](O)/C=C/C=C\C[C@@H](O)/C=C/C=C/C=C\[C@@H](O)CCCC(=O)O` [RvE1, resolvin E1] the same measures were 57826 pg/mL, 88 pg/mL, 5840 pg/mL and 28379 pg/mL.
On to “5-hydroxy-eicosatetraenoic acid [5-HETE]”, for which, in assay [1], the “abundance with dispersion formulation and/or bile acids compared to AvailOm without both (in words)” value was “lower”. Also, the “Extracellular concentration” value in assay [1] (AvailOm) is 13 pg/mL; in assay [2] it was 15434 pg/mL; in assay [3] it was 9356 pg/mL.
For the compound 9-hydroxyoctadecadienoic acid [9-HODE], in assay [1], the “abundance with dispersion formulation and/or bile acids compared to AvailOm without both (in words)” value is listed as “lower”. For the same compound, the “Extracellular concentration” value in assay [1] (AvailOm) came to 43 pg/mL.
